According to PMC6329626 (British Journal of Pharmacology, 2018):
Read-outs that look alike come from different tables or passages of the source. Blank lines part the entries; values can stand above or below the molecule they belong to.

Legend:
recombinant CYP3A7 = recombinant CYP3A7 (Homo sapiens, UniProt P24462); assay: Inhibition by sulfaphenazole of CYP3A7 Supersomes; type: biochemical; settings: testosterone 50 μM
HLM [1] = settings: 25 μM sulfaphenazole; ref Lakehal et al., 2001; cited from earlier work
HLM [2] = settings: ref Towles et al., 2016; cited from earlier work
[3] = biological target: CYP3A4 (testosterone 6β-hydroxylation) in HLM (Homo sapiens, UniProt P08684); assay: Inhibition by sulfaphenazole of testosterone hydroxylation in HLM; type: biochemical
recombinant human CYP3A4 = recombinant human CYP3A4 (Homo sapiens, UniProt P08684); assay: Enzyme kinetics of flucloxacillin hydroxylation by CYP3A4 Supersomes; settings: 100 nM CYP3A4 Supersomes, 10 min
pooled HLM [4] = assay: Enzyme kinetics of 5′-HM-FLX formation from flucloxacillin by pooled HLM; type: in vitro ADME, human; settings: 0.5 mg·mL^−1 pooled HLM, 10 min, Michaelis–Menten fit
biliary epithelial cells = settings: ref Lakehal et al., 2001; cited from earlier work
HLM from 16 donors = type: in vitro ADME, human; settings: for Pearson's r, FLX hydroxylation vs phenacetin O-deethylation: CYP1A2; for Pearson's r, FLX hydroxylation vs coumarin 7-hydroxylation: CYP2A6; for Pearson's r, FLX hydroxylation vs diclofenac 4′-hydroxylation: CYP2C9
[5] = read-out: Average Cmax in patients; patients taking 1000 mg orally; cited from earlier work
[6] = tested on: CYP3A (flucloxacillin 5′-hydroxylation); assay: Inhibition of 5′-HM-FLX formation by pooled HLM by CYP-specific inhibitors; type: biochemical, human; settings: human, pooled human liver microsomes, probe flucloxacillin (formation of 5′-HM-FLX), 10 and 100 μM
pooled HLM [7] = assay: as above; type: biochemical, human; settings: 10 μM inhibitor; pooled HLM
[8] = substrate: Cc1onc(-c2c(F)cccc2Cl)c1C(=O)N[C@@H]1C(=O)N2[C@@H]1SC(C)(C)[C@@H]2C(=O)O; assay: cells, lysate or membranes named; type: in vitro ADME, human; settings: other: 100 nM CYP3A7 Supersomes, 10 min; pH 7.4; 37.0 °C

Chain of CYP3A4 (testosterone 6β-hydroxylation) in HLM (P08684 whole entry): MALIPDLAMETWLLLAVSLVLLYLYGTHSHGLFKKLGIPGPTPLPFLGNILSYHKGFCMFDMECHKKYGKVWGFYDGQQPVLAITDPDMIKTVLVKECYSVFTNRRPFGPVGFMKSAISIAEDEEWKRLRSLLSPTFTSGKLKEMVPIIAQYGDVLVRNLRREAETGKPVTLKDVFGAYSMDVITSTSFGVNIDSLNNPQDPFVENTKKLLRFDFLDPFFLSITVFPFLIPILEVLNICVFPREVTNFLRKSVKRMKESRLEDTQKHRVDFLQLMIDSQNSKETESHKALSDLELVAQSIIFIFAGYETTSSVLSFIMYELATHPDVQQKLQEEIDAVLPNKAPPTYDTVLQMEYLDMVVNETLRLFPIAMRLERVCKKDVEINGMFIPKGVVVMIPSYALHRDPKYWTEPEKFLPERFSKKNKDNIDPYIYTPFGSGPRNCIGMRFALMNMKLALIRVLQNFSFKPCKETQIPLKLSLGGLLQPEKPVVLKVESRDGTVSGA
Chain of recombinant human CYP3A4 (P08684 whole entry): as above

Molecule: Cc1onc(-c2c(F)cccc2Cl)c1C(=O)N[C@@H]1C(=O)N2[C@@H]1SC(C)(C)[C@@H]2C(=O)O [flucloxacillin]
- K M of 5′-HM-FLX formation (recombinant human CYP3A4): 124 ± 15 µM
- K M of 5′-HM-FLX formation (pooled HLM [4]): 284 ± 38 µM
- Vmax of 5′-HM-FLX formation (pooled HLM [4]): 30 ± 2 pmol·min^−1·mg^−1 protein
- Cytotoxicity to isolated biliary epithelial cells (biliary epithelial cells): without effect
- Pearson's r, FLX hydroxylation vs phenacetin O-deethylation (HLM from 16 donors; 10 μM FLX): 0.04
- Pearson's r, FLX hydroxylation vs phenacetin O-deethylation (HLM from 16 donors; 100 μM FLX): 0.10
- Pearson's r, FLX hydroxylation vs coumarin 7-hydroxylation (HLM from 16 donors; 10 μM FLX): 0.45
- Pearson's r, FLX hydroxylation vs coumarin 7-hydroxylation (HLM from 16 donors; 100 μM FLX): 0.45
- Pearson's r, FLX hydroxylation vs amodiaquine N-deethylation (HLM from 16 donors; CYP2C8, 10 μM FLX): 0.50
- Pearson's r, FLX hydroxylation vs diclofenac 4′-hydroxylation (HLM from 16 donors; 10 μM FLX): 0.78
- Pearson's r, FLX hydroxylation vs diclofenac 4′-hydroxylation (HLM from 16 donors; 100 μM FLX): 0.58
- Pearson's r, FLX hydroxylation vs mephenytoin 4′-hydroxylation (HLM from 16 donors; CYP2C19, 10 μM FLX): 0.45
- Pearson's r, FLX hydroxylation vs midazolam 1′-hydroxylation (HLM from 16 donors; CYP3A4, 10 μM FLX): 0.58
- Pearson's r, FLX hydroxylation vs testosterone 6β-hydroxylation (HLM from 16 donors; CYP3A4, 10 μM FLX): 0.69
- Cmax [5]: 100 µM

Molecule: COCCCC/C(=N\OCCN)c1ccc(C(F)(F)F)cc1 [fluvoxamine]
- Inhibition of 5′-HM-FLX formation (pooled HLM [7]): did not show significant inhibition

B1: recombinant human CYP3A7 (Homo sapiens) (protein)
chain: MDLIPNLAVETWLLLAVSLILLYLYGTRTHGLFKKLGIPGPTPLPFLGNALSFRKGYWTFDMECYKKYRKVWGIYDCQQPMLAITDPDMIKTVLVKECYSVFTNRRPFGPVGFMKNAISIAEDEEWKRIRSLLSPTFTSGKLKEMVPIIAQYGDVLVRNLRREAETGKPVTLKHVFGAYSMDVITSTSFGVSIDSLNNPQDPFVENTKKLLRFNPLDPFVLSIKVFPFLTPILEALNITVFPRKVISFLTKSVKQIKEGRLKETQKHRVDFLQLMIDSQNSKDSETHKALSDLELMAQSIIFIFAGYETTSSVLSFIIYELATHPDVQQKVQKEIDTVLPNKAPPTYDTVLQLEYLDMVVNETLRLFPVAMRLERVCKKDVEINGMFIPKGVVVMIPSYVLHHDPKYWTEPEKFLPERFSKKNKDNIDPYIYTPFGSGPRNCIGMRFALVNMKLALVRVLQNFSFKPCKETQIPLKLRFGGLLLTEKPIVLKAESRDETVSGA
- kcat [8]: 193 ± 7 pmol·min^−1·nmol^−1 P450

More lines, main results first:

- Inhibition of 6β-hydroxylation of testosterone (recombinant CYP3A7): not affected
- Inhibition of testosterone hydroxylation [3]: but not testosterone hydroxylation
Molecule: Nc1ccc(S(=O)(=O)Nc2ccnn2-c2ccccc2)cc1 [sulfaphenazole]
- Inhibition of HLM-catalysed hydroxylation of flucloxacillin (HLM [1]): no inhibition
- Inhibition of bioactivation of hydroxylapatinib by HLM (HLM [2]): significantly inhibited

- inhibition at 1 μM [6]: 50%
Molecule: CC(=O)N1CCN(c2ccc(OCC3COC(Cn4ccnc4)(c4ccc(Cl)cc4Cl)O3)cc2)CC1 (stereo not shown) [ketoconazole]
